Experimental data reported in a melting point compilation (Tetko et al.).
Residues, ends and D or L forms follow the SMILES beside them. *: point of attachment. Trt = c1ccc(C(c2ccccc2)(c2ccccc2)*)cc1; Cbz = O=C(OCc1ccccc1)*; Boc = CC(C)(C)OC(=O)*; OBn = c1ccc(CO*)cc1; Bn = c1ccc(C*)cc1

Compound | melting point [°C]
CC1(C)CC(OC(=O)CCCCCCCCC(=O)OC2CC(C)(C)N(OC3CCCCCCCCCCC3)C(C)(C)C2)CC(C)(C)N1OC1CCCCCCCCCCC1 | 70 to 78
CCCCCCCCCCCCS(=O)(=O)c1cc2c(cc1S(=O)(=O)CCCCCCCCCCCC)C(=O)c1c(c(O)c3cc(S(=O)(=O)CCCCCCCCCCCC)c(S(=O)(=O)CCCCCCCCCCCC)cc3c1O)C2=O | 180 to 183
CC(C)=CCCC(C)=CCCC(C)=CCCC(C)=CCCC(C)=CCCC(C)=CCCC(C)=CCCC(C)=CCCC(C)=CCCC(C)=CCNCC12CCCN1CCC2 | 59 to 61
O=C(OCc1ccc(OCCCCCCCCCCC2c3c(c4ccccc4c4ccccc34)-c3c2c2ccccc2c2ccccc32)cc1)c1cn(C2CC2)c2cc(F)c(F)cc2c1=O | 71 to 73
CCC1(CC)c2cc(-c3nc4ccccc4s3)ccc2-c2ccc(N(Cc3ccccc3)c3ccc4c(c3)C(CC)(CC)c3cc(-c5nc6ccccc6s5)ccc3-4)cc21 | 174 to 176
COC(=O)CNC(=O)[C@H](NC(=O)[C@@H](CSC(c1ccccc1)(c1ccccc1)c1ccccc1)NC(=O)[C@@H](C)NC(=O)OCC1c2ccccc2-c2ccccc21)C(C)C | 195 to 197
CC(C)(C)OC(=O)NC(Cc1cc(I)c(Oc2cc(I)c(O)c(I)c2)c(I)c1)C(=O)O (configuration not stated) | 212
CCC(C)CNC(=O)C(CC(O)C(CC(C)C)NC(=O)C(Cc1cscn1)NC(=O)C(CC(=O)N(C)C1CCCCC1)Cc1cccc2ccccc12)C(C)(C)O (mixture of isomers) | 187 to 190
CC(NC(=O)C(Cc1ccc(OCc2ccccc2)cc1)NC(=O)C(COCc1ccccc1)NC(=O)C(Cc1c[nH]c2ccccc12)NC(=O)OC(C)(C)C)C(=O)O (configuration not stated) (Boc-WS(Bn)Y(Bn)A-OH; configuration not given here) | 93 to 94
CCCCCCCCCCCCCCOc1ccc(N(CC(=O)OCc2ccccc2)CC(=O)OCc2ccccc2)cc1OCCCCCCCCCCCCCC | 52
CCCCCCCCCCCCN(c1nc(NCC(O)C2CC(C)(C)NC(C)(C)C2)nc(NCC(O)C2CC(C)(C)NC(C)(C)C2)n1)c1nc(NCC(O)C2CC(C)(C)NC(C)(C)C2)nc(NCC(O)C2CC(C)(C)NC(C)(C)C2)n1 (configuration not stated) | 106 to 110
CCOC(=O)c1c(Nc2ccccc2)n[nH]c1C | 160 to 164
CCCCCCCCCS(=O)(=O)c1cc2c3cc(S(=O)(=O)CCCCCCCCC)c(S(=O)(=O)CCCCCCCCC)cc3c3cc(S(=O)(=O)CCCCCCCCC)c(S(=O)(=O)CCCCCCCCC)cc3c2cc1S(=O)(=O)CCCCCCCCC | 202
O=C(OCc1ccc(OCCCCCCCCCCC2c3c(c4ccccc4c4ccccc34)-c3c2c2ccccc2c2ccccc32)cc1)C(=CNC1CC1)C(=O)c1cc(F)c(F)cc1F | 49 to 51
Cc1cc(C(C)(C)C)c(O)c(C)c1CCCCCCCCCCCCCCCCCCCOCCCCCCCCCCCCCCCCCCCc1c(C)cc(C(C)(C)C)c(O)c1C | 52
O=C(Oc1cccc2c(OC(=O)c3ccc(OCc4ccccc4)cc3)c3c(OC(=O)c4ccc(OCc5ccccc5)cc4)cccc3cc12)c1ccc(OCc2ccccc2)cc1 | 240 to 242
CCN(CC)CCN=S(=O)(c1ccccc1)c1cccs1 (configuration not stated) | 116
COc1cc(OC)c(/C=C/C(c2ccc(OC)c(NCC(=O)O)c2)S(=O)(=O)C(/C=C/c2c(OC)cc(OC)cc2OC)c2ccc(OC)c(NCC(=O)O)c2)c(OC)c1 (configuration not stated) | 128 to 131
COc1cc(OC)c(/C=C/C(c2ccc(OC)c(NS(=O)(=O)C(F)(F)F)c2)S(=O)(=O)C(/C=C/c2c(OC)cc(OC)cc2OC)c2ccc(OC)c(NS(=O)(=O)C(F)(F)F)c2)c(OC)c1 (configuration not stated) | 144 to 146

Compound | melting point [°C]
COc1cc(OC)c(/C=C/C(c2ccc(OC)c(NC(=O)C(F)(F)F)c2)S(=O)(=O)C(/C=C/c2c(OC)cc(OC)cc2OC)c2ccc(OC)c(NC(=O)C(F)(F)F)c2)c(OC)c1 (configuration not stated) | 179 to 180
CC(C)CCCOC(=O)NCCc1nc(-c2ccc(-c3ccccc3)cc2)c[nH]1 | 128
CCCCCCCCCCCCCCCCCCN(CCCCCCCCCCCCCCCCCC)CCCN(CCOC(=O)Nc1ccccc1)CCOC(=O)Nc1ccccc1 | 54 to 56
O=C(Oc1ccc2c(OC(=O)c3ccc(OCc4ccccc4)c(Cl)c3)c3ccccc3cc2c1OC(=O)c1ccc(OCc2ccccc2)c(Cl)c1)c1ccc(OCc2ccccc2)c(Cl)c1 | 106 to 109
CN=S(=O)(NC(=O)Nc1nc(OC)cc(OC)n1)c1ccccc1Br (configuration not stated) | 120 to 125
CCCCCCCCCS(=O)(=O)c1c(S(=O)(=O)CCCCCCCCC)c(S(=O)(=O)CCCCCCCCC)c(S(=O)(=O)CCCCCCCCC)c(S(=O)(=O)CCCCCCCCC)c1S(=O)(=O)CCCCCCCCC | 95
O=C(OCCCCCCOc1ccc(-c2ccccc2)cc1)c1cc([N+](=O)[O-])ccc1-c1ccc([N+](=O)[O-])cc1C(=O)OCCCCCCOc1ccc(-c2ccccc2)cc1 | 121 to 122
CCCCCCCC/C=C\CCCCCCCCN | 15 to 22
COC(=O)Nc1cc(C(/C=C/c2c(OC)cc(OC)cc2OC)S(=O)(=O)C(/C=C/c2c(OC)cc(OC)cc2OC)c2ccc(OC)c(NC(=O)OC)c2)ccc1OC (configuration not stated) | 188 to 191
CC(C)Cn1c(C(O)c2ccc(Cl)cc2)nc2c(N)nc3ccccc3c21 (configuration not stated) | 140 to 145
CCCCCCCCCCCCCCCCCCSCCOC1OC(COC(C)=O)C(OC2OC(COC(C)=O)C(OC3OC(COC(C)=O)C(OC(C)=O)C(OC(C)=O)C3OC(C)=O)C(OC(C)=O)C2OC(C)=O)C(OC(C)=O)C1N1C(=O)c2ccccc2C1=O (configuration not stated) | 150 to 152
COc1ccccc1C(=C/C=C/C(=O)O)c1ccccc1OC | 196 to 197
CCNC(=O)[C@@H](C)NC(=O)[C@H](Cc1c[nH]cn1)NC(=O)[C@H](COCc1ccccc1)NC(=O)[C@H](Cc1ccc(OCc2ccccc2)cc1)NC(=O)[C@H](Cc1c[nH]cn1)NCc1ccccc1 | 83 to 88
CSCCC(NC(=O)C(CCC(N)=O)NC(=O)OC(C)(C)C)C(=O)NC(C)C(=O)NC(C(=O)NC(CCCCNC(=O)OCc1ccccc1)C(=O)OCc1ccccc1)C(C)C (configuration not stated) (Boc-QMAVK(Cbz)-OBn; configuration not given here) | 238 to 241
O=C(O)Cc1cc(I)c(Oc2cc(I)c(OCC3CO3)c(I)c2)c(I)c1 (configuration not stated) | 176
CCOc1ccc(C(=CC2(C=C(c3ccc(OCC)cc3)c3ccc(N4CCCC4)cc3)OC(=O)c3c(Cl)c(Cl)c(Cl)c(Cl)c32)c2ccc(N3CCCC3)cc2)cc1 (configuration not stated) | 221 to 223
CC(C)(C)c1cc(CCC(=O)OCCOc2ccc(C(C)(C)c3ccc(OCCOC(=O)CCc4cc(C(C)(C)C)c(O)c(C(C)(C)C)c4)cc3)cc2)cc(C(C)(C)C)c1O | 104 to 106
CC(=O)OCC(CNC(=O)c1c(I)c(C(=O)NCC(COC(C)=O)OC(C)=O)c(I)c(N2C(=O)COCC2COC(C)=O)c1I)OC(C)=O (configuration not stated) | 210 to 212
CC(c1cc(C(C)(C)C)cc(C(C)(C)C)c1O)c1cc(C(C)(C)C)cc(C(C)(C)C)c1Op1oc2c(C(C)(C)C)cc(C(C)(C)C)cc2c2cc(C(C)(C)C)cc(C(C)(C)C)c2o1 (configuration not stated) | 273 to 277

Compound | melting point [°C]
[C-]#[N+]CCC(O)COc1ccc(C(C)(C)C)cc1 (configuration not stated) | 69 to 72
[C-]#[N+]C(c1cc(Br)c(OC)c(OC)c1)S(=O)(=O)c1ccc(C)cc1 (configuration not stated) | 109 to 110
CSC1=NCc2cc(Cl)ccc2-n2c(C)nnc21 | 248 to 250
CC(C)c1ccc(S(=O)(=O)OC(c2cc(C(OS(=O)(=O)c3ccc(C(C)C)cc3)(C(F)(F)F)C(F)(F)F)cc(C(OS(=O)(=O)c3ccc(C(C)C)cc3)(C(F)(F)F)C(F)(F)F)c2)(C(F)(F)F)C(F)(F)F)cc1 | 105
Nc1ncnc2c1c(I)cn2COC(O)CCO (configuration not stated) | 177 to 178
CCCCCCCCCCCCCCCCCCN(CCCCCCCCCCCCCCCCCC)C(=O)c1cc(NS(=O)(=O)c2ccc(Cl)nc2)c2ccccc2c1O | 80 to 83
CC#CCOc1ccc(S(=O)(=O)C(C(=O)NO)C2CCCCC2)cc1 (configuration not stated) | 191
COc1cc(OC)c(/C=C/C(c2ccc(OC)c(NC(=O)C(F)(F)C(F)(F)F)c2)S(=O)(=O)C(/C=C/c2c(OC)cc(OC)cc2OC)c2ccc(OC)c(NC(=O)C(F)(F)C(F)(F)F)c2)c(OC)c1 (configuration not stated) | 179 to 180
FC(F)(F)C(F)(F)C(F)(F)C(F)(F)C(F)(F)C(F)(F)c1nc2c(Br)sc(Br)c2nc1C(F)(F)C(F)(F)C(F)(F)C(F)(F)C(F)(F)C(F)(F)F | 46 to 47
[C-]#[N+]CC(=O)N(c1ccccc1)C(C)C | 80 to 82
Brc1ccc2c(c1)C(CCCCCCCCCCn1c3ccccc3c3ccccc31)(CCCCCCCCCCn1c3ccccc3c3ccccc31)c1cc(Br)ccc1-2 | 94 to 96
Cc1cc(C)c(N2c3ccccc3S(=O)(=O)c3cc(C=Cc4ccc(-c5ccc(C=Cc6ccc7c(c6)S(=O)(=O)c6ccccc6N7c6c(C)cc(C)cc6C)cc5)cc4)ccc32)c(C)c1 | > 350
COC(=O)C(Cc1ccccc1)NC(=O)C(Cc1ccccc1)NC(=O)C(CC(N)=O)NC(=O)C(CCCCNC(=O)OC(C)(C)C)NC(=O)C(CSC(c1ccccc1)(c1ccccc1)c1ccccc1)NC(=O)CNC(=O)C(C)NC(=O)CNC(=O)CNC(=O)C(CC(C)C)NC(=O)OC(C)(C)C (configuration not stated) (Boc-LGGAGC(Trt)K(Boc)NFF-OMe; configuration not given here) | 238 to 240
CC(=O)OCC(COC(C)=O)NC(=O)c1c(I)c(C(=O)NC(COC(C)=O)COC(C)=O)c(I)c(N2C(=O)OCC2CO)c1I (configuration not stated) | 235 to 240
COc1ccc(C(O)CNCc2ccccc2[N+](=O)[O-])cc1OC (configuration not stated) | 120 to 121
O=P(O)(C(F)(F)C(F)(F)C(F)(F)C(F)(F)C(F)(C(F)(F)F)C(F)(F)F)C(F)(F)C(F)(F)C(F)(F)C(F)(F)C(F)(C(F)(F)F)C(F)(F)F | 91 to 94
COC(=O)COC1C(NC(C)=O)C(OCc2ccccc2)OC(COCc2ccccc2)C1OC1OC(COCc2ccccc2)C(OCc2ccccc2)C(OCc2ccccc2)C1NC(C)=O (configuration not stated) | 221 to 223
O=C(NCC(O)CO)c1c(I)c(C(=O)NCC(O)CO)c(I)c(N2C(=O)COCC2CO)c1I (configuration not stated) | 227 to 230
N=C(Nc1ccc2[nH]cc(C3=CCN4CCCC4C3)c2c1)c1cccs1 (configuration not stated) | 122 to 124
